These results are taken from the NIST ThermoML archive (doi:10.1021/je500114m).

The series is described as follows: mn = molality of the nth substance listed, in mol/kg. The note with it: 298.15 K, Ring tensiometer.

Molecules are shown by their SMILES. ± gives the expanded uncertainty stated by the source.

In the case of `C=CC(C)(C)O` [2-methyl-3-buten-2-ol] + O, the surface tension liquid-gas – broadly, the force per length acting along the surface – reads like this: (m1 = 0.001) 70.6 ± 0.9 mN/m; (m1 = 0.003) 69.7 ± 0.9 mN/m; (m1 = 0.0052) 69.5 ± 0.9 mN/m; (m1 = 0.0088) 67.7 ± 0.9 mN/m.

As for `CC/C=C\CCO` [(Z)-3-hexen-1-ol] + O, the surface tension liquid-gas by setting is: (m1 = 0.001) 69.5 ± 0.9 mN/m; (m1 = 0.003) 65.2 ± 1.4 mN/m; (m1 = 0.005) 63.5 ± 0.8 mN/m; (m1 = 0.006) 61.5 ± 0.8 mN/m.

For `CC/C=C\CCOC(C)=O` [(Z)-3-hexenyl acetate] + O, the surface tension liquid-gas (m1 = 0.0006) came out at 66.8 ± 0.9 mN/m, the surface tension liquid-gas (m1 = 0.0015) is on record as 62.3 ± 0.8 mN/m and the surface tension liquid-gas (m1 = 0.0019) is given as 58.7 ± 1.1 mN/m.

Regarding `COC(=O)c1ccccc1O` [methyl 2-hydroxybenzoate] + O, the surface tension liquid-gas is 70.8 ± 0.9 mN/m (m1 = 0.001), 70.1 ± 0.9 mN/m (m1 = 0.0021), 68.9 ± 0.9 mN/m (m1 = 0.0031) and 65.2 ± 1.1 mN/m (m1 = 0.0053).

For the molecule `O` [water] + C=CC(C)(C)O, the surface tension liquid-gas (m2 = 0) is given as 70.8 ± 1 mN/m.

`O` [water] + CC/C=C\CCO: the surface tension liquid-gas (m2 = 0) was determined as 71.5 ± 0.9 mN/m.

On to `O` [water] + CC/C=C\CCOC(C)=O, for which the surface tension liquid-gas (m2 = 0) was found to be 70.2 ± 1 mN/m.

With `O` [water] + COC(=O)c1ccccc1O, the surface tension liquid-gas (m2 = 0) was 71 ± 0.9 mN/m.
